This assay addresses NanoLuc-PRMT5 co-expressed with WDR77 (Homo sapiens, UniProt O14744). In words: Live-cell NanoBRET target engagement with BRET probe CBH-002 in HEK293 cells expressing NanoLuc-PRMT5 and unlabeled WDR77. The assay is classed as cell-based. Details: host or cells: HEK293. The note with it: HEK293, Figure S2H, log([compound]), read-out: normalised BRET, Bio rep 1-3; for remaining activity at 0.3715 µM: uM -0.43; for remaining activity at 0.04074 µM: uM -1.39; for remaining activity at 0.0138 µM: uM -1.86; for remaining activity at 0.004571 µM: uM -2.34; for remaining activity at 0.001514 µM: uM -2.82; for remaining activity at 0.0005129 µM: uM -3.29; for remaining activity at 0.0001698 µM: uM -3.77. The procedure: HEK293 cells (ATCC) were cultured in DMEM (Thermo Fisher) + 10% (v/v) FBS (Seredigm), and HCT116 cells (Horizon Discovery, #PAR-034 and #R02-033) were cultured in McCoy’s 5A (Thermo Fisher) + 10% FBS, with incubation in a humidified, 37 °C/5% CO2 incubator. Cells were split 1–3 days prior to performing experiments and used at roughly 80% confluency. […] Cells were transfected according to the manufacturer’s protocol using FuGENE HD (Promega). NanoLuc fusion DNA was diluted into Transfection Carrier DNA (Promega) in Opti-MEM at a ratio of 1:9 (mass/mass), and FuGENE HD was added at a ratio of 1:3 (μg DNA:μL lipid). […] Formed complexes were combined with cells resuspended to a density of 2 × 10^5 cells/mL in Opti-MEM + 1% FBS at a ratio of 1:20 (vol:vol). […] Cells were seeded at a density of 2 × 10^5 cells/mL in Opti-MEM + 1% FBS in 100 μL (96-well). The BRET probe CBH-002 was prepared first as a 100× stock in 100% DMSO (Sigma) and then diluted to a 20× stock in NanoBRET Tracer Dilution buffer (Promega). Test compounds were prepared as 1000× stocks in 100% DMSO and diluted to 10× stocks in Opti-MEM to prepare working stocks. […] NanoBRET Complete 3x Substrate was prepared by combining Nano-Glo Substrate and Extracellular NanoLuc Inhibitor in Opti-MEM, according to the manufacturer’s protocol (Promega).
BRET ratio values were calculated by dividing the acceptor by the donor signal, and raw BRET was converted to milli-BRET (mBRET) units (mBu) by multiplying by 1000.
EC50 values were obtained by fitting the BRET probe and compound affinity curves to a sigmoidal four-parameter fit model in Graphpad Prism:1 Y=Ymin+Ymax−Ymin/1+10^LogEC50−Xh where h is the Hill Slope.
When normalized BRET was used, mBRET values were normalized using2 NormalizedBRET%=(Y−BRETmin)/BRETmax−BRETmin where y = mBRET in the presence of test compound and BRET probe, BRETmin = mBRET at the highest concentration (saturating) of test compound and BRET probe, and BRETmax = mBRET in the presence of vehicle (DMSO) and BRET probe.
Normalized concentration-response curves showing full competition were fit using a 2-parameter model:3 Y=100/1+10^LogEC50−Xh
In situations where only partial competition was observed, the normalized concentration-response curves were fit using Eq. 1 and where Ymin was constrained to >0.

Where two headings read alike, the source gives them in different places.

Chain of NanoLuc-PRMT5 co-expressed with WDR77 (O14744 whole entry): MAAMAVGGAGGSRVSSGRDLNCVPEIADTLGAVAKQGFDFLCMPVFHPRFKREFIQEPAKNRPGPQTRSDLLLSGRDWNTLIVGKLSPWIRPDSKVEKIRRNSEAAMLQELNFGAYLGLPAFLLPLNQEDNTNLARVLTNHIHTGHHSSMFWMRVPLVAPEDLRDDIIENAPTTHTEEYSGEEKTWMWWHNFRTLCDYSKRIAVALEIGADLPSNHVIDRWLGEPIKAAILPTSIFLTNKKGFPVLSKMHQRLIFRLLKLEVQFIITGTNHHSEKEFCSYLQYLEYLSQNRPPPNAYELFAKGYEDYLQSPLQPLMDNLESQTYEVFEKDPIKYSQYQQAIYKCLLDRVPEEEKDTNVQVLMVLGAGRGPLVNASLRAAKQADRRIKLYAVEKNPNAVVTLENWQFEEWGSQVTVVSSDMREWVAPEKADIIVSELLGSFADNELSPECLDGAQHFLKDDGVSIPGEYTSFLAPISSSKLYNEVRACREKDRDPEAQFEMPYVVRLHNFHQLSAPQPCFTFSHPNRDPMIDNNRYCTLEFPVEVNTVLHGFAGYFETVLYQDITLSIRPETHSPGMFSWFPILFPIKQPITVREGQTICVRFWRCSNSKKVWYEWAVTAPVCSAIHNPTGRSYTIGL
Chain of NanoLuc-PRMT5 co-expressed with WDR77 (Q9BQA1 whole entry partner): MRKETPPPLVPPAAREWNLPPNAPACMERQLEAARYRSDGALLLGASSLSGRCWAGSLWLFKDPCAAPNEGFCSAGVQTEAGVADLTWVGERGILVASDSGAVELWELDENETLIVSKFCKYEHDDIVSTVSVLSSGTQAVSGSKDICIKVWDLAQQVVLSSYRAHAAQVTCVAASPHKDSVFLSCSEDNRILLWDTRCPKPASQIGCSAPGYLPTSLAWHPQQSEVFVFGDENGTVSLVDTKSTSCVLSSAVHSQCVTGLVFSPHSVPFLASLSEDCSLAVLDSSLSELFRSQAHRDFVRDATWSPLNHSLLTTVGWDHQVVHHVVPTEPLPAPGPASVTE

For `CC(C)Oc1ccc(-c2c[nH]cc2CN(C)CCN)cc1` [MS023, reference compound], the remaining activity at 0.3715 µM was found to be 102%, the remaining activity at 0.04074 µM was 103%, the remaining activity at 0.0138 µM worked out at 104% and the remaining activity at 0.004571 µM is 101%. For the same molecule, the remaining activity at 0.001514 µM is 102%, the remaining activity at 0.0005129 µM was found to be 103% and the remaining activity at 0.0001698 µM was found to be 98%. Besides, the remaining activity at […] (uM 0.0458) turned out to be 103%. Besides, the remaining activity at […] (uM 0.52) came to 102%. Where the note is “uM -0.91”, the remaining activity at […] came out at 103%.
In the case of `CNCCN1CCC(c2cc(CN(C)C(=O)c3cccc(Oc4ccccc4)c3)ccn2)CC1` [TP064, reference compound], the remaining activity at 0.3715 µM worked out at 102%, the remaining activity at 0.04074 µM came out at 101%, the remaining activity at 0.0138 µM is 101% and the remaining activity at 0.004571 µM stood at 99.8%. Besides, the remaining activity at 0.001514 µM was 97.9%, the remaining activity at 0.0005129 µM was 97.6% and the remaining activity at 0.0001698 µM was found to be 97.4%. Further, the remaining activity at […] (uM 0.0458) worked out at 100%. Moreover, the remaining activity at […] (uM 0.52) is 99%. Under “uM -0.91”, the remaining activity at […] is 102%.

(Values after publication PMC12675575, “A BRET biosensor for measuring uncompetitive engagement of PRMT5 complexes in cells” (Nature Communications, 2025).)
